Consider 13 compounds from US7238340B1, “Monoamine, diamide, thiol-containing metal chelating agents” (CIS bio international, priority 1991, dated 2007).

For orientation: Ki means a dissociation constant, usually derived from enzyme kinetics or from competition with a known ligand. In general, IC50 refers to the concentration that inhibits the measured activity by half.

Like-named read-outs stand apart in the source and are kept apart here. Starred links: 1 amine or outer side, 2 acyl side, 3 side chain; linkers in the order of their positions; H or OH if unused. Positions of bridges follow the written chain, without caps; N, C: chain ends. Non-standard residues stand in square brackets, D forms with d. Residues, ends and D or L forms follow the SMILES beside them. Chains are numbered I, II in the order given. No end group written: not given here. *: point of attachment. εLys = N[C@@H](CCCCN[*:1])C(=O)[*:2]; Propyl(3-NH2) = NCCC*; βAla = NCCC(=O)O

Data set [1] has as its system CA20948 rat pancreatic tumor. Also on record: species or system Lewis rats. Conditions: in vivo, iv. Here is the method:
In vivo imaging of somatostatin receptors expressed by rat tumor cells was performed essentially as described by Bakker et al. (1991, Life Sciences 49: 1593–1601).
CA20948 rat pancreatic tumor cells, thawed from frozen harvested tumor brei, were implanted intramuscularly into the right hind thigh of 6 week old Lewis rats in a suspension of 0.05 to 0.1 mL/animal. The tumors were allowed to grow to approximately 0.5 to 2 g, harvested, and tumor brei was used to implant a second, naive set of Lewis rats. Passaging in this fashion was repeated to generate successive generations of tumor-bearing animals. The tumor-bearing animals used for the in vivo studies were usually from the third to fifth passage and carried 0.2 to 2 g tumors.
For studies of the specificity of radiotracer localization in the tumors, selected animals were given an subcutaneous SSTR-blocking dose (4 mg/kg) of octreotide 30 minutes prior to injection of the radiotracer.
Third- to fifth-passage CA20948 tumor-bearing Lewis rats were restrained and injected intravenously via the dorsal tail vein with a dose of 0.15–0.20 mCi of a ^99mTc-labeled SSTR targeting imaging agent of the invention (corresponding to 3 to 8 μg peptide in 0.2 to 0.4 mL).
At selected times, the animals were sacrificed by cervical dislocation and selected necropsy was performed. Harvested tissue samples were weighed and counted along with an aliquot of the injected dose in a gamma well-counter.

Another data set has as its target T1, somatostatin receptor (Rattus norvegicus, UniProt P30680).
T1 construct: endogenous in cells; host or cells: AR42J rat pancreatic tumor cells (membrane preparation)
As to the kind of experiment: Inhibition of [125I-Tyr11]somatostatin-14 binding to AR42J rat pancreatic tumor cell membranes. Conditions: [125I-Tyr11]somatostatin-14 0.5 nM, 25 min at 30° C. The method, then: The rat pancreatic tumor cell line AR42J expressing the somatostatin receptor was cultured in Dulbecco's modified essential media (DMEM) supplemented with 10% fetal calf serum (FCS) and 8 mM glutamine in a humidified 5% CO2 atmosphere at 37° C. Harvested cells were homogenized in cold buffer (50 mM Tris-HCl, pH 7.4), and the homogenate was then centrifuged at 39,000 g for 10 min at 4° C. Pellets were washed once with buffer and then resuspended in ice-cold 10 mM Tris-HCl buffer (pH 7.4). Equal aliquots of this cell membrane preparation were then incubated with [^125I-Tyr^11]somatostatin-14 (Amersham, Arlington Heights, Ill.) at a final concentration of 0.5 nM at 750,000 cpm/mL, specific activity 2000Ci/mmol and either a peptide or peptide-rhenium complex of the invention (at a final concentration ranging from […] in 50 mM HEPES buffer, pH 7.4, containing 1% bovine serum albumin, 5 mM MgCl2, 0.02 mg/mL bacitracin, 0.02 mg/mL phenylmethyl-sulfonylfluoride and 200,000 IU Trasylol) for 25 min at 30° C.
After incubation, this membrane mixture was filtered through a polyethyleneimine-washed GC/F filter (Whatman Ltd., Maidstone, England) using a filtration manifold, and the residue remaining on the filter was washed three times with 5 mL cold HEPES buffer. The filter and a sample of the filter washings were then counted on a gamma counter. […]

Data set [2] relates to fresh human platelet-rich plasma. As to the kind of experiment: Platelet aggregation inhibition assay (ADP-induced). In kind it is cell-based. The method, then:
Platelet aggregation studies were performed essentially as described by Zucker (1989, Methods in Enzymol. 169: 117–133). Briefly, platelet aggregation was assayed with or without putative platelet aggregation inhibitory compounds using fresh human platelet-rich plasma, comprising 300,000 platelets per microlitre. Platelet aggregation was induced by the addition of a solution of adenosine diphosphate to a final concentration of 10 to 15 micromolar, and the extent of platelet aggregation monitored using a Bio/Data aggregometer (Bio/Data Corp., Horsham, Pa.). The concentrations of platelet aggregation inhibitory compounds used were varied from 0.1 to 500 μg/mL. The concentration of inhibitor that reduced the extent of platelet aggregation by 50% (defined as the IC50) was determined from plots of inhibitor concentration versus extent of platelet aggregation. An inhibition curve for peptide RGDS was determined for each batch of platelets tested as a positive control.

Data set [3] has as its system Escherichia coli infected muscle. Further details: species or system New Zealand White (NZW) rabbits. Conditions: rabbit, in vivo. Here is the method: New Zealand White (NZW) rabbits of both sexes and weighing 2–3 kg were innoculated intramuscularly in the left calf with a potent strain of Escherichia coli. After 24 hours, the animals were sedated by intramuscular injection of ketamine and xylazine and then injected with Tc-99m labeled infection targeting agent (2–10mCi, <150 μg). The animals were then positioned supine in the field of view of a gamma cammera (LEAP collimator/photopeaked for Tc-99m) to be imaged. The animals were imaged over the first hour post-injection, and then at approximately 1 hour intervals for the next 3 hours. Animals were allowed to recover between image acquisiitons and re-anesthetized as needed.
Upon completion of the final imaging, each animal was sacrificed with an intravenous overdose of sodium pentobarbital, then dissected to obtain samples of blood and of infected and control tissue. Tissue samples were weighed and counted using a gamma radition counter; a standard amount the injected dose was counted in parallel with each sample as a control.

Data set [4] has as its system thrombus. The data set is described as follows: In vivo imaging of deep vein thrombosis with Tc-99m labeled thrombus targeting peptide, canine model. To be noted: Tc-99m labeled peptide, i.v., dog.
Excerpt: (§1) Mongrel dogs (25–35 lb., fasted overnight) were sedated with a combination of ketamine and aceprozamine intramuscularly and then anesthetized with sodium pentabarbital intravenously. In each animal, an 18-gauge angiocath was inserted in the distal half of the right femoral vein and a 5 mm or 8 mm Dacron®-entwined stainless steel embolization coil (Cook Co., Bloomington Ind.) was placed in the femoral vein at approximately mid-femur. The catheter was removed, the wound sutured and the placement of the coil documented by X-ray. The animals were then allowed to recover overnight.
(§2) One day following coil placement, each animal was re-anesthetized, intravenous saline drips placed in each foreleg and a urinary bladder catheter inserted to collect urine. The animal was placed supine under a gamma camera equipped with a low-energy, all purpose collimator and photopeaked for Tc-99m. […] The second line was maintained for blood collection.
(§3) Gamma camera imaging was started simultaneously with injection. Anterior images over the heart were acquired as a dynamic study (10 sec image acquisitions) over the first 10 min, and then as static images at 1, 2, 3 and 4h post-injection. Anterior images over the legs were acquired for 500,000 counts or 20 min (whichever is shorter), at approximately 10–20 min, and at approximately 1, 2, 3 and 4h post-injection. Leg images were collected with a lead shield placed over the bladder.
(§4) Following collection of the final image, each animal was deeply anesthetized with pentobarbital. Two blood samples were collected using a heparinized syringe followed by a euthanizing dose of saturated potassium chloride solution administered by intercardiac or bolus intravenous injection. […] The thrombus, coil and coil Dacron fibres were then dissected free of the vessel. The thrombus, saline-washed vessel samples, coil and coil Dacron® fibres were separated, and each sample was placed in a pre-weighed test tube. The samples were weighed and counted in a gamma well counter in the Tc-99m channel, along with known fractions of the injected doses.
(§5) Fresh thrombus weight, percent injected dose (% ID)/g in the thrombus and blood obtained just prior to euthanasia and thrombus/blood and thrombus/muscle ratios were determined. From the computer-stored images, thrombus/background ratios were determined by analysis of the counts/pixel measured in regions-of-interest (ROI) drawn over the thrombus and adjacent muscle.
The test system of data set [5] is thrombus. To be noted: dog, in vivo, iv.
Excerpt: as §1, §2, §3, §4, §5
[6] abbreviates: ADP 10 to 15 micromolar, human platelet-rich plasma, read-out: IC50.

T1 sequence (P30680 whole entry): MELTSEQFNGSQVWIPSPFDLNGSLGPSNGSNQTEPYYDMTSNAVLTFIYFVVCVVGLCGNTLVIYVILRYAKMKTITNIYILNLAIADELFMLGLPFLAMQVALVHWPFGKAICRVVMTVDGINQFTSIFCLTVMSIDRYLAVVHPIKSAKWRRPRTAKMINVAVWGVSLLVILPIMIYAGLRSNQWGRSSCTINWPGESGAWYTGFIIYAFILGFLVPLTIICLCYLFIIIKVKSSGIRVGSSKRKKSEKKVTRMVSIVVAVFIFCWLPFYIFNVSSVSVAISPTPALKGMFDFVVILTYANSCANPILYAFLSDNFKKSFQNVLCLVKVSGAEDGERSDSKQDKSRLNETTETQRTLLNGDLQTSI

In the case of “cyclo(N-methyl)FYWDKV.Hcy.(CH2CO.(ε-K)GCKK.amide) [Peptide P723]”, in data set [1], the Tumor/Blood is on record as 5.4.
Consider “AKCGGGFDYWDKTFT.amide (AKCGGGFDYWDKTFT-NH2) [Peptide P398]”, for which, in the data set with somatostatin receptor, the Ki stood at 1.4 nM.
Take `NCCCSC[C@@H]1NC(=O)[C@@H](Cc2ccc(O)cc2)NC(=O)CSC[C@@H](C(=O)NCC(=O)NCCCC[C@H](NC(=O)CNC(=O)[C@@H]2CSCC(=O)N[C@H](Cc3ccc(O)cc3)C(=O)N[C@@H](CSCCCN)C(=O)NCC(=O)N[C@@H](CC(=O)O)C(=O)N2)C(=O)NCC(=O)NCCCC[C@H](NC(=O)CNC(=O)[C@H](CCCCNC(=O)CNC(=O)[C@@H]2CSCC(=O)N[C@H](Cc3ccc(O)cc3)C(=O)N[C@@H](CSCCCN)C(=O)NCC(=O)N[C@@H](CC(=O)O)C(=O)N2)NC(=O)CNC(=O)[C@@H]2CSCC(=O)N[C@H](Cc3ccc(O)cc3)C(=O)N[C@@H](CSCCCN)C(=O)NCC(=O)N[C@@H](CC(=O)O)C(=O)N2)C(=O)NCCCC[C@H](N)C(=O)NCC(=O)N[C@@H](CS)C(=O)NCC(N)=O)NC(=O)[C@H](CC(=O)O)NC(=O)CNC1=O` [Peptide P681, {(CH2CO.YDApc.GDCG)2KG}2K(ε-K)GCG.amide] (I: {CH2CO}-[dY]C(Propyl(3-NH2))GDCGKGK[εLys]GCG-NH2 / II: {CH2CO}-[dY]C(Propyl(3-NH2))GDCGKG / III: {CH2CO}-[dY]C(Propyl(3-NH2))GDCG / IV: {CH2CO}-[dY]C(Propyl(3-NH2))GDCG; amide I:7-IV:C, I:9-II:C, II:7-III:C (inferred); thioether I:N-I:5, II:N-II:5, III:N-III:5, IV:N-IV:5 (inferred)): it took 110 nM to reach half-maximal inhibition in data set [2] (IC50).
Regarding GGCGLF [Peptide P477], in data set [3], the “Blood (% ID/g)” value came to 0.0140 % ID/g, the “Control Muscle (% ID/g)” value came to 0.0012 % ID/g, the “Infected Muscle (% ID/g)” value was found to be 0.0100 % ID/g and the “Ratio of Infected/Blood” value was 0.72. In data set [3], the “Ratio of Infected/Control” value was determined as 8.4.
In the case of “cyclo(N-methyl)FYWDKV.Hcy.(CH2CO.(β-Dap)KCR.amide) [Peptide P832]”, the Tumor/Blood in data set [1] is on record as 13.
As for `NCCCC[C@H](NC(=O)[C@@H]1CSCC(=O)N[C@H](Cc2ccc(O)cc2)C(=O)N[C@@H](CSCCCN)C(=O)NCC(=O)N[C@@H](CC(=O)O)C(=O)N1)C(=O)NCC(=O)NCC(=O)NCCCC[C@H](NC(=O)CNC(=O)CNC(=O)[C@H](CCCCN)NC(=O)[C@@H]1CSCC(=O)N[C@H](Cc2ccc(O)cc2)C(=O)N[C@@H](CSCCCN)C(=O)NCC(=O)N[C@@H](CC(=O)O)C(=O)N1)C(=O)NCCCC[C@H](N)C(=O)NCC(=O)N[C@@H](CS)C(=O)NCCC(N)=O` [Peptide P687, (CH2CO.YD.Apc.GDCKGG)2K(ε-K)GC.β-Ala.amide] (I: {CH2CO}-[dY]C(Propyl(3-NH2))GDCKGGK[εLys]GC[βAla]-NH2 / II: {CH2CO}-[dY]C(Propyl(3-NH2))GDCKGG; amide I:9-II:C (inferred); thioether I:N-I:5, II:N-II:5 (inferred)), the IC50 in data set [2] was found to be 79 nM.
For the compound “cyclo(N-methyl)FYWDKV.Hcy.(CH2CO.(β-Dap)KCK.amide) [Peptide P829]”, in data set [1], the Tumor/Blood turned out to be 13.
As for “GGCSIPPEVKFNKPFVYLI.amide (GGCSIPPEVKFNKPFVYLI-NH2) [Peptide P472]”, in data set [3], the “Blood (% ID/g)” value turned out to be 0.0076 % ID/g, the “Control Muscle (% ID/g)” value is on record as 0.0009 % ID/g, the “Infected Muscle (% ID/g)” value turned out to be 0.0079 % ID/g and the “Ratio of Infected/Blood” value is 1.0. Moreover, in data set [3], the “Ratio of Infected/Control” value stood at 8.8.
Consider “cyclo(N-methyl)FYWDKV.Hcy.(CH2CO.(δ-Orn)GCK.amide) [Peptide P773]”, for which, in data set [1] (1.5 h), the “% ID/g Blood” value worked out at 0.13 % ID/g, the “% ID/g Tumor” value stood at 1.9 % ID/g and the Tumor/Blood was found to be 15.
As to `CC(=O)NCSC[C@H](NC(=O)CNC(=O)CNC(=O)[C@@H]1CSCC(=O)N[C@H](Cc2ccc(O)cc2)C(=O)N[C@@H](CSCCCN)C(=O)NCC(=O)N[C@@H](CC(=O)O)C(=O)N1)C(=O)NCC(=O)N[C@@H](CSCNC(C)=O)C(=O)NCC(=O)NCC(=O)N[C@@H](CSCC(=O)NCCCC[C@H](NC(=O)CSC[C@H](NC(=O)CNC(=O)CNC(=O)[C@H](CSCNC(C)=O)NC(=O)CNC(=O)[C@H](CSCNC(C)=O)NC(=O)CNC(=O)CNC(=O)[C@@H]1CSCC(=O)N[C@H](Cc2ccc(O)cc2)C(=O)N[C@@H](CSCCCN)C(=O)NCC(=O)N[C@@H](CC(=O)O)C(=O)N1)C(N)=O)C(=O)NCCCC[C@H](NC(=O)[C@H](CCCCNC(=O)CSC[C@H](NC(=O)CNC(=O)CNC(=O)[C@H](CSCNC(C)=O)NC(=O)CNC(=O)[C@H](CSCNC(C)=O)NC(=O)CNC(=O)CNC(=O)[C@@H]1CSCC(=O)N[C@H](Cc2ccc(O)cc2)C(=O)N[C@@H](CSCCCN)C(=O)NCC(=O)N[C@@H](CC(=O)O)C(=O)N1)C(N)=O)NC(=O)CSC[C@H](NC(=O)CNC(=O)CNC(=O)[C@H](CSCNC(C)=O)NC(=O)CNC(=O)[C@H](CSCNC(C)=O)NC(=O)CNC(=O)CNC(=O)[C@@H]1CSCC(=O)N[C@H](Cc2ccc(O)cc2)C(=O)N[C@@H](CSCCCN)C(=O)NCC(=O)N[C@@H](CC(=O)O)C(=O)N1)C(N)=O)C(=O)NCCCC[C@H](N)C(=O)NCC(=O)N[C@@H](CS)C(=O)NCC(N)=O)C(N)=O` [Peptide P688, {(CH2CO.YD.Apc. GDCGGCAcmGCAcmGGCamide)2(CH2CO)2K}2.K(ε-K)GCG.amide], the IC50 in data set [2] (setting [6]) amounted to 26 nM.
Consider “cyclo(N-methyl)FYWDKV.Hcy.(CH2CO.(δ-Dap)GCK.amide) [Peptide P772]”, for which the Tumor/Blood in data set [1] is 7.2.
In the case of “(CH2CO.YD.Apc.GDCGGCAcmGCAcmGGC.amide)2(CH2CO)2K(ε-K)GC.amide [Peptide P667]”, the IC50 in data set [2] (setting [6]) turned out to be 110 nM. In addition, the “% ID/g Thrombus” value in the data set with thrombus [4] (after the final image (4h post-injection)) came to 0.006 % ID/g. In the data set on thrombus [4] (ratio), the Thrombus/Blood came out at 5.9 and the Thrombus/Muscle is given as 30.
As for “(CH2CO.YDApc.GDCKGCG.amide)2(CH2CO)2K(ε-K)GC.amide [Peptide P748]”, the IC50 in data set [2] (setting [6]) turned out to be 29 nM. In the data set with thrombus [5], this compound showed a Thrombus/Blood of 5.8 and a Thrombus/Muscle of 90.
